# Assay results taken from the supplement of paper PMC10307832.
# Tests used:
# Experiment in all cases: relative viability (nuclei count vs DMSO), 5 days (fraction); higher = more cells survive
# [1] = compound: CC1(C)CCC(CN2CCN(c3ccc(C(=O)NS(=O)(=O)c4ccc(NCC5CCOCC5)c([N+](=O)[O-])c4)c(Oc4cnc5[nH]ccc5c4)c3)CC2)=C(c2ccc(Cl)cc2)C1 [Venetoclax] + CC(=O)Nc1cccc(-n2c(=O)n(C3CC3)c(=O)c3c(Nc4ccc(I)cc4F)n(C)c(=O)c(C)c32)c1 [Trametinib] (partner 0.02 µM)
# Summary of the method: (§1)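 Relative viability was taken as the ratio of nuclei in treated wells to nuclei in vehicle wells. Lung cancer cell lines in 1536-well plates received compounds by pin tool one day after seeding, either one drug alone or a fixed anchor-drug dose plus five library-drug doses (not always all listed) in √10 steps. Nuclei were counted on 4× images after 5 days of treatment, and values are medians of duplicate plates.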
# [2] = compound: CC1(C)CCC(CN2CCN(c3ccc(C(=O)NS(=O)(=O)c4ccc(NCC5CCOCC5)c([N+](=O)[O-])c4)c(Oc4cnc5[nH]ccc5c4)c3)CC2)=C(c2ccc(Cl)cc2)C1 [Venetoclax] + CC(=O)c1c(C)c2cnc(Nc3ccc(N4CCNCC4)cn3)nc2n(C2CCCC2)c1=O [Palbociclib] (partner 0.5 µM)
# Summary of the method: as §1
# [3] = compound: CC1(C)CCC(CN2CCN(c3ccc(C(=O)NS(=O)(=O)c4ccc(NCC5CCOCC5)c([N+](=O)[O-])c4)c(Oc4cnc5[nH]ccc5c4)c3)CC2)=C(c2ccc(Cl)cc2)C1 [Venetoclax] + C[C@]1(O)C[C@@H](c2nc(-c3ccc4ccc(-c5ccccc5)nc4c3)c3c(N)nccn32)C1 [Linsitinib] (partner 1 µM)
# Summary of the method: as §1
# [4] = compound: CC1(C)CCC(CN2CCN(c3ccc(C(=O)NS(=O)(=O)c4ccc(NCC5CCOCC5)c([N+](=O)[O-])c4)c(Oc4cnc5[nH]ccc5c4)c3)CC2)=C(c2ccc(Cl)cc2)C1 [Venetoclax] + CC1(C)CCC(c2ccc(Cl)cc2)=C(CN2CCN(c3ccc(C(=O)NS(=O)(=O)c4ccc(N[C@H](CCN5CCOCC5)CSc5ccccc5)c(S(=O)(=O)C(F)(F)F)c4)cc3)CC2)C1 [Navitoclax] (partner 0.5 µM)
# Summary of the method: as §1
Cell Line,relative viability ([1]; first compound 0.01 µM),relative viability ([1]; first compound 0.03162 µM),relative viability ([1]; first compound 0.1 µM),relative viability ([1]; first compound 0.3162 µM),relative viability ([1]; first compound 1 µM),relative viability ([2]; first compound 0.01 µM),relative viability ([2]; first compound 0.03162 µM),relative viability ([2]; first compound 0.1 µM),relative viability ([2]; first compound 0.3162 µM),relative viability ([2]; first compound 1 µM),relative viability ([3]; first compound 0.01 µM),relative viability ([3]; first compound 0.03162 µM),relative viability ([3]; first compound 0.3162 µM),relative viability ([3]; first compound 1 µM),relative viability ([4]; first compound 0.01 µM),relative viability ([4]; first compound 0.03162 µM),relative viability ([4]; first compound 0.1 µM),relative viability ([4]; first compound 0.3162 µM),relative viability ([4]; first compound 1 µM),relative viability ([3]; first compound 0.1 µM)
NCI-H650,0.875,0.995,0.892,0.892,0.963,0.319,0.387,0.345,0.366,0.303,0.912,0.843,1.04,0.754,–,–,–,–,–,–
A-427,0.624,0.741,0.735,0.71,0.713,0.469,0.595,0.498,0.507,0.516,1.06,1.18,1.16,1.19,0.874,1.1,0.967,0.988,1.01,1.1
EMC-BAC-2,0.915,0.965,0.887,0.857,0.906,0.5,0.555,0.533,0.541,0.486,0.789,0.834,0.814,0.787,1.09,1.17,1.14,1.15,1.07,0.816
NCI-H520,0.58,0.823,–,0.613,0.594,0.236,0.217,–,0.204,0.201,1.04,0.935,0.969,0.902,1.14,1.27,1.06,1.2,0.962,0.911
LOU-NH91,0.784,0.81,0.768,0.807,0.707,0.504,0.546,0.505,0.516,0.519,0.887,0.986,0.975,0.895,0.594,0.832,0.676,0.77,0.659,0.882
HOP-62,0.44,0.341,0.366,0.442,0.39,0.43,0.462,0.373,0.427,0.4,1.04,0.968,0.938,0.948,0.988,1.17,1.09,1.13,1,1.15
NCI-H1563,–,–,–,–,–,–,–,–,–,–,1.16,1.29,1.4,1.24,–,–,–,–,–,1.28
NCI-H1792,0.456,0.405,0.485,0.498,0.439,0.657,0.678,0.65,0.699,0.583,0.469,0.46,0.408,0.591,0.649,0.71,0.696,0.671,0.601,0.467
HCC-15,0.384,0.457,0.352,0.403,0.375,0.755,0.672,0.419,0.655,0.508,0.763,0.826,0.794,0.771,0.674,0.707,0.635,0.621,0.588,0.742
HCC-366,0.358,0.411,0.353,0.383,0.407,0.391,0.359,0.314,0.37,0.326,0.659,0.657,0.779,0.549,1.04,1,1.01,0.987,0.993,0.605
LU99A,0.485,0.611,0.482,0.566,0.596,0.377,0.465,0.384,0.39,0.427,0.482,0.604,0.56,0.55,0.783,0.936,0.708,0.833,0.741,0.505
SW 1573,0.571,0.612,0.486,0.603,0.545,0.337,0.422,0.377,0.36,0.362,0.93,0.766,0.835,0.891,0.877,1.02,0.971,1.03,0.997,0.916
NCI-H1703,–,–,–,–,–,–,–,–,–,–,0.549,0.652,0.756,0.755,1.33,1.24,0.969,1.01,1.04,0.81
NCI-H2170,0.859,0.97,0.841,0.812,0.87,0.378,0.412,0.389,0.368,0.355,–,–,–,–,0.746,0.688,0.521,0.509,0.531,–
NCI-H2087,0.197,0.181,0.178,0.199,0.257,0.257,0.257,0.235,0.249,0.188,1.01,1.13,0.983,0.945,1.01,0.982,0.921,0.942,0.974,1.01
LCLC-103H,0.714,0.663,0.635,0.679,0.654,0.518,0.479,0.491,0.437,0.428,1.1,1.24,1.13,0.989,–,–,–,–,–,1.16
NCI-H1755,0.713,0.765,0.768,0.715,0.736,0.463,0.469,0.481,0.461,0.448,0.978,1,0.964,0.969,1.01,0.988,0.96,0.999,0.925,0.848
NCI-H1650,0.539,0.581,0.609,0.485,0.529,0.315,0.364,0.323,0.419,0.306,–,–,–,–,1.14,1.3,–,1.02,0.968,–
HARA,1.26,0.818,–,0.647,0.676,0.289,0.279,–,0.26,0.272,0.833,0.93,0.927,0.928,0.996,1.17,1.1,1.11,1.15,0.911
Calu-6,–,–,–,–,–,–,–,–,–,–,0.897,0.943,0.901,0.896,0.716,0.934,0.851,0.91,0.832,1.01

Cell Line,relative viability ([1]; first compound 0.01 µM),relative viability ([1]; first compound 0.03162 µM),relative viability ([1]; first compound 0.1 µM),relative viability ([1]; first compound 0.3162 µM),relative viability ([1]; first compound 1 µM),relative viability ([2]; first compound 0.01 µM),relative viability ([2]; first compound 0.03162 µM),relative viability ([2]; first compound 0.1 µM),relative viability ([2]; first compound 0.3162 µM),relative viability ([2]; first compound 1 µM),relative viability ([3]; first compound 0.01 µM),relative viability ([3]; first compound 0.03162 µM),relative viability ([3]; first compound 0.3162 µM),relative viability ([3]; first compound 1 µM),relative viability ([4]; first compound 0.01 µM),relative viability ([4]; first compound 0.03162 µM),relative viability ([4]; first compound 0.1 µM),relative viability ([4]; first compound 0.3162 µM),relative viability ([4]; first compound 1 µM),relative viability ([3]; first compound 0.1 µM)
NCI-H1975,0.256,0.388,0.319,0.347,0.3,0.667,0.672,0.506,0.515,0.534,1.02,0.971,0.92,0.92,1.15,1.15,1.05,1.21,1.11,0.869
SK-MES-1,0.615,0.636,0.536,0.526,0.554,0.329,0.336,0.327,0.326,0.286,0.995,1.09,1.06,0.963,1.25,1.16,1.2,1.25,1.09,1.07
NCI-H1666,0.764,0.809,0.73,0.824,0.858,0.625,0.656,0.631,0.627,0.656,0.909,0.864,0.759,0.745,0.616,0.986,0.978,0.971,0.901,0.731
NCI-H2228,0.715,0.608,0.567,0.453,0.464,0.708,0.776,0.566,0.687,0.746,0.717,0.754,0.724,0.625,0.932,1.03,0.927,0.836,0.999,0.631
HCC-44,1.03,1.11,1.04,1.04,0.999,0.928,0.954,0.934,0.899,0.919,0.613,0.728,0.664,0.609,0.987,0.943,0.891,0.979,0.975,0.67
PC-14,0.679,0.726,0.726,0.642,0.645,0.521,0.514,0.546,0.574,0.437,0.925,0.993,0.818,0.811,0.986,1.03,0.936,0.954,0.926,1.04
NCI-H1299,–,–,–,–,–,–,–,–,–,–,0.987,1.02,0.926,0.936,1.07,1.04,1.01,1.01,1,1.06
NCI-H661,0.528,0.606,0.538,0.525,0.532,0.401,0.411,0.396,0.392,0.392,0.676,0.662,0.703,0.567,–,–,–,–,–,0.551
EBC-1,–,–,–,–,–,–,–,–,–,–,0.902,0.963,0.837,0.786,0.389,0.455,0.479,0.443,0.47,0.912
NCI-H2342,0.77,0.762,0.979,0.839,0.819,0.564,0.491,0.56,0.508,0.52,–,–,–,–,–,–,–,–,–,–
SW 900,0.853,0.711,0.824,0.761,0.657,0.506,0.516,0.497,0.552,0.498,–,–,–,–,–,–,–,–,–,–
IA-LM,–,–,–,–,–,–,–,–,–,–,0.51,0.605,0.418,0.403,0.84,0.899,0.807,0.763,0.662,0.71
NCI-H358,0.117,0.14,0.106,0.126,0.135,0.131,0.114,0.13,0.13,0.131,0.754,0.812,0.679,0.702,–,–,–,–,–,0.624
NCI-H522,0.716,0.747,0.674,0.728,0.655,0.929,0.95,0.925,0.816,0.968,–,–,–,–,–,–,–,–,–,–
NCI-H596,0.731,0.746,0.851,0.951,0.755,–,–,–,–,–,1.03,1.09,1.13,1.11,0.892,0.935,0.916,0.887,0.919,1.1
A549,–,–,–,–,–,–,–,–,–,–,0.586,0.597,0.568,0.558,1.29,1.25,1.23,1.17,1.08,0.524
NCI-H1648,–,0.628,0.358,0.427,0.53,–,0.283,0.255,0.249,0.225,–,–,–,–,–,–,–,–,–,–
ChaGo-K-1,0.769,0.951,0.882,0.939,0.815,0.992,0.986,0.867,0.905,0.899,–,–,–,–,1.02,1.24,–,1.09,1.06,–
ABC-1,–,–,–,–,–,0.802,0.796,0.564,0.618,0.797,0.7,0.878,0.81,0.813,–,–,–,–,–,0.697
